Test results published in patent publication US20230190761A1, “METHYLENE BLUE STABILIZED MRNA COMPOSITIONS” (ModernaTX, Inc., priority 2020, published 2023).
“Also recorded” adds a separate entry of the source.

Legend:
Type in all cases: physicochemical
[1] = test system: mRNA-LNP formulations; experiment: mRNA-LNP stability in differing buffer conditions with or without methylene blue (fragmentation analysis and RP-HPLC); details: 150 mM NaCl, 2 mM MB
Method: This example discusses stabilization effects of methylene blue on mRNA-LNP formulations in varying buffer conditions. To match experiments conducted on lyophilized products, which were reconstituted in saline, and refrigerated/frozen formulations in TRIS-Sucrose, two buffers across the range of pH were tested. Sodium chloride was added to mimic saline, as it can cause methylene blue to crash out of solution.

[2] = test system: lipid nanoparticles (LNP); experiment: Permeation of phenothiazinium dyes into LNP and binding to encapsulated mRNA; details: optical spectroscopic studies, Cryo-EM, DLS, isothermal titration calorimetry
From the text: This example describes phenothiazinium dyes which interact with mRNA and their impact on LNP formulations. […] These interpretations were made based on extensive optical spectroscopic studies, Cryo-EM, dynamic light scattering (DLS) and isothermal titration calorimetry studies.

[3] = test system: mRNA-LNP; experiment: DLS characterization of mRNA-LNP physical stability in presence of methylene blue
From the text: Particle size (e.g., particle diameter) can be determined by Dynamic Light Scattering (DLS). DLS measures a hydrodynamic diameter. Smaller particles diffuse more quickly, leading to faster fluctuations in the scattering intensity and shorter decay times for the autocorrelation function. Larger particles diffuse more slowly, leading to slower fluctuations in the scattering intensity and longer decay times in the autocorrelation function.
In view of the surprising and somewhat counter-intuitive finding that methylene blue enhanced stability of mRNA-LNP formulations, additional experimentation was conducted. The stability of mRNA-LNPs in the presence of increasing levels of methylene blue was investigated upon incubation at 5° C., 25° C. or 40° C. for 10 days. […] In addition to chemical stability, a careful examination of the possible impact of methylene blue on the physical state of the LNP was performed using dynamic light scattering (DLS). This technique is exquisitely sensitive to tiny changes in hydrodynamic nanoparticle size, especially with respect to the formation of larger aggregates known to be a common physical degradation mode of many LNPs.
After the 3 week incubation, samples were analyzed by dynamic light scattering (DLS) to characterize the hydrodynamic diameters of LNPs.
Samples were measured by dynamic light scattering (DLS) in PBS after being filtered through 0.8 μm filters to remove large particulates.

[4] = test system: mRNA in LNP formulation containing two mRNA; experiment: Chemical stability of mRNA-LNP after 5 months refrigerated storage
Method: This example relates to stabilization of mRNA in LNP formulations by the addition of methylene blue over long-term refrigerated storage. […] To confirm that this stabilization effect would also occur with long-term refrigerated storage, a study was conducted to evaluate the effect of various concentrations of methylene blue (0, 0.5, 1, 1.5 and 2.0 mM) on the stability of a lipid nanoparticle formulation containing two distinct mRNA compounds stored at 5° C.
To determine the effects of methylene blue on the chemical stability of mRNA-LNP formulations over long-term refrigerated storage, mRNA purity, mRNA fragmentation, and mRNA-lipid adduct formation were measured over time in mRNA-LNP samples containing varying concentrations of methylene blue (A=0 mM, B=0.5 mM, C=1.0 mM, D=1.5 mM, E=2.0 mM methylene blue). Total purity was determined according to main peak percentage by RP-HPLC (FIG. 13A), fragmentation was determined according to fragmentation analysis (FIG. 13B), and mRNA-lipid adduct formation was determined according to RP-HPLC (FIG. 13C).

[5] = test system: mRNA; experiment: Differential scanning calorimetry of mRNA with methylene blue
Method: To test the effect of methylene blue on folding and intramolecular hybridization of mRNA, differential scanning calorimetry (DSC) was conducted on samples of mRNA containing no methylene blue, 50 μM methylene blue, or 100 μM methylene blue. […] At higher methylene blue concentrations (approximately 0.5 mM), precipitation of mRNA occurs, but at the concentrations of this experiment the mRNA-dye complex remains soluble. It is notable that the sharp transitions at ˜74° C. and 80° C. are not affected by the presence of dye, whereas there is a massive effect on the least thermally stable transitions occurring in the <60° C. region, shown by the large rightward shift of the curves with the addition of methylene blue. By comparison, therapeutic protein stabilization strategies commonly involve screening of excipient effects on thermal unfolding, however, the thermal shifts observed for optimized protein formulations typically involve thermal shifts of only a few degrees.
The DSC thermogram show the effects on the thermal unfolding profile of mRNA in the presence or absence of […] methylene blue. When the methylene blue-containing sample was dialyzed to remove dye, the resulting thermogram corresponded closely to that of the original no-dye sample. […] All the fine details of the thermal unfolding profile were restored post-dialysis, indicating a restoration of the original structure-function of the mRNA.

CN(C)c1ccc2nc3ccc(N(C)C)cc3[s+]c2c1 [methylene blue]
Adduct ([1]; pH 7, TRIS-sucrose buffer): 17.6% | Fragmentation ([1]; pH 7, TRIS-sucrose buffer): 16.0% | Main peak ([1]; pH 7, TRIS-sucrose buffer): 66.4% | Adduct ([1]; pH 7, phosphate buffer): 23.9% | Fragmentation ([1]; pH 7, phosphate buffer): 17.1% | Main peak ([1]; pH 7, phosphate buffer): 59.1% | Adduct ([1]; pH 7.5, TRIS-sucrose buffer): 16.4% | Fragmentation ([1]; pH 7.5, TRIS-sucrose buffer): 19.5% | Main peak ([1]; pH 7.5, TRIS-sucrose buffer): 64.1% | Adduct ([1]; pH 7.5, phosphate buffer): 22.0% | Fragmentation ([1]; pH 7.5, phosphate buffer): 18.7% | Main peak ([1]; pH 7.5, phosphate buffer): 59.4% | Adduct ([1]; pH 8, TRIS-sucrose buffer): 15.9% | Fragmentation ([1]; pH 8, TRIS-sucrose buffer): 22.9% | Main peak ([1]; pH 8, TRIS-sucrose buffer): 61.2% | Adduct ([1]; pH 8, phosphate buffer): 22.7% | Fragmentation ([1]; pH 8, phosphate buffer): 25.0% | Main peak ([1]; pH 8, phosphate buffer): 52.2% | Adduct ([1]; pH 8.5, TRIS-sucrose buffer): 13.3% | Fragmentation ([1]; pH 8.5, TRIS-sucrose buffer): 32.5% | Main peak ([1]; pH 8.5, TRIS-sucrose buffer): 54.1% | permeation of lipid nanoparticles and binding to encapsulated mRNA [2]: does not permeate LNPs to the same extent as certain other phenothiazinium dyes | LNP size distributions and average hydrodynamic diameters by DLS ([3]; 0.5-2.0 mM methylene blue, 3 weeks refrigerated storage): does not have an impact on the overall lipid nanoparticle structure | hydrodynamic size or size distribution (polydispersity index) of LNP by DLS ([3]; up to 2.0 mM methylene blue, 5 months refrigerated storage): no significant impact | hydrodynamic size / physical stability of the LNP by DLS ([3]; up to 6 mM methylene blue, 10 days at 5° C., 25° C. and 40° C.): no significant effect on hydrodynamic size of the LNP; also recorded: no impact on the physical stability of the mRNA-LNP | optimal methylene blue concentration with respect to adduct formation ([4]; 5 months refrigerated storage, RP-HPLC): 1.5 mM | mRNA fragmentation rate ([4]; methylene blue as low as 0.5 mM, 5 months (151 days) refrigerated storage): significantly inhibit mRNA fragmentation rate relative to LNP compositions lacking dye; also recorded: significantly inhibited relative to control | methylene blue concentration with appreciable impact to mRNA conformational stability (DSC) [5]: ~10 µM | methylene blue concentration giving dramatic global changes in overall mRNA structure (DSC) ([5]; 0.3 μM mRNA, 32.5 mM sodium acetate, pH 5.0): ≥ 367.8 µM | folded stability of mRNA (DSC thermogram) ([5]; 50 μM or 100 μM methylene blue vs no methylene blue): enormous enhancement of folded stability | reversibility of methylene blue binding to mRNA (DSC after dialysis) ([5]; 100 mM methylene blue, dialyzed to remove dye): reversible | lowest methylene blue concentration affecting the folded structure of mRNA (DSC) ([5]; mRNA at 0.3 μM): 11.3 µM | methylene blue concentration at which precipitation of mRNA occurs ([5]; mRNA in solution): approximately 0.5 mM
